How the values were obtained:
[1] = Safety evaluation (adverse events, vital signs, ECGs, laboratory tests) after single 1 g or 2 g dose of SYM-1219; assay type: in vivo, human; details: single 1 g or 2 g oral dose; healthy female subjects
Experimental: Methods: 28 healthy female subjects (14/group) ages 18-65 years were randomized to receive a single oral dose of either 1 or 2 grams of SYM-1219, mixed into 4 oz. of applesauce. […] Safety was evaluated by recording adverse events, vital signs, ECGs and laboratory tests.

[2] = Safety evaluation of SYM-1219 alone or in combination with EE2/NET; assay type: in vivo, human; details: 2 g
Experimental: Methods: Fifty-four (54) healthy female subjects, ages 18-65, received EE2/NET alone and in combination, where SYM-1219+EE2/NET were co-administered on Day 1 (Group B1; N=27) or SYM-1219 on Day 1 and EE2/NET on Day 2 (Group B2; N=27). Serial blood samples were drawn to measure plasma concentrations of EE2/NET. […] Safety was evaluated by recording of adverse events, vital signs, ECGs and standard laboratory tests.

[3] = set-up: species or system human; details: in vivo
Source text: The study was designed in accordance with FDA guidance for pivotal bacterial vaginosis trials with a primary end point clinical cure in the Modified Intent-to-Treat (mITT) population at day 21 to 30 versus placebo (two-sided test at alpha=0.05). Subjects were recruited to the study they presented with the following Amsel criteria: presence of typical discharge. a positive KOH Whiff test vaginal fluid pH greater than or equal to 4.7, and the presence of “clue cells” (epithelial cells with adhering bacteria) on microscopic examination.

[4] = Single oral dose pharmacokinetics (plasma and urine) of SYM-1219 microgranule formulation in fasted healthy female subjects; details: for AUC(0-t): AUC0-t; for CL renal: CLr
Experimental: A non-compartmental analysis was performed and the PK parameters for each treatment group are reported.

[5] = female, human, plasma, po, 1 g, Geometric Mean, 1 gram single oral dose, fasted, N = 14
[6] = female, human, plasma, po, 1 g, Mean, 1 gram single oral dose, fasted, N = 14
[7] = female, human, plasma, po, 1 g, Median, 1 gram single oral dose, fasted, N = 14
[8] = plasma, 1 gram single oral dose, fasted, N = 14
[9] = plasma, 2 grams single oral dose, fasted, N = 14
[10] = urine, 1 gram single oral dose, fasted, N = 14
[11] = urine, 2 grams single oral dose, fasted, N = 14

Cc1ncc([N+](=O)[O-])n1CC(C)O (stereo not drawn) [SYM-1219, 1-(2-hydroxypropyl)-2-methyl-5-nitromidazole]
changes in vital signs, electrocardiogram (ECG) or laboratory parameters [1]: no significant changes | safety and tolerability [1]: safe and well-tolerated | severity and outcome of all adverse events [1]: mild and resolved without sequelae | changes in vital signs, ECG or laboratory parameters [2]: no significant changes | safety and tolerability [2]: safe and well-tolerated | Acute sinusitis: Events ([3]; female, human): 0 n | Acute sinusitis: Subjects ([3]; female, human): 0 n | Adverse Event: Abdominal pain ([3]; female, human): 0% | Adverse Event: Diarrhea ([3]; female, human): 0% | Adverse Event: Fungal Infection ([3]; female, human): 3% | Adverse Event: Headache ([3]; female, human): 1% | Adverse Event: Metallic/Unusual Taste ([3]; female, human): 1% | Adverse Event: Nausea ([3]; female, human): 1% | Adverse Event: Vulva/Vaginal Irritation ([3]; female, human): 1% | Alanine aminotransferase increased: Events ([3]; female, human): 1 n | Any Adverse Event, Overall: Events ([3]; female, human): 19 n | Aspartate aminotransferase increased: Events ([3]; female, human): 1 n | Candida infection: Events ([3]; female, human): 0 n | Candida infection: Subjects ([3]; female, human): 0 n | Chlamydial infection: Events ([3]; female, human): 1 n | Chromaturia: Events ([3]; female, human): 1 n | Dizziness: Events ([3]; female, human): 1 n | Dysgeusia: Events ([3]; female, human): 1 n | Fungal infection: Events ([3]; female, human): 0 n | Fungal infection: Subjects ([3]; female, human): 0 n | Gastrointestinal disorders, Overall: Events ([3]; female, human): 1 n | Gonorrhoea: Events ([3]; female, human): 1 n | Headache: Events ([3]; female, human): 1 n | Infections and infestations, Overall: Events ([3]; female, human): 7 n | Injury, poisoning and procedural complications, Overall: Events ([3]; female, human): 1 n | Investigations, Overall: Events ([3]; female, human): 2 n | Nausea: Events ([3]; female, human): 1 n | Nervous system disorders, Overall: Events ([3]; female, human): 3 n | Oropharyngeal pain: Events ([3]; female, human): 1 n | Renal and urinary disorders, Overall: Events ([3]; female, human): 1 n | Reproductive system and breast disorders, Overall: Events ([3]; female, human): 3 n | Respiratory, thoracic and mediastinal disorders, Overall: Events ([3]; female, human): 1 n | Surgical and medical procedures, Overall: Events ([3]; female, human): 0 n | Surgical and medical procedures, Overall: Subjects ([3]; female, human): 0 n | Thermal burn: Events ([3]; female, human): 1 n | Tooth abscess: Events ([3]; female, human): 1 n | Tooth extraction: Events ([3]; female, human): 0 n | Tooth extraction: Subjects ([3]; female, human): 0 n | Tooth infection: Events ([3]; female, human): 1 n | Upper respiratory tract infection: Events ([3]; female, human): 0 n | Upper respiratory tract infection: Subjects ([3]; female, human): 0 n | Urinary tract infection: Events ([3]; female, human): 1 n | Vaginal discharge: Events ([3]; female, human): 1 n | Vaginal odor: Events ([3]; female, human): 1 n | Vulvovaginal mycotic infection: Events ([3]; female, human): 2 n | Vulvovaginal pruritus: Events ([3]; female, human): 1 n | tolerability [3]: surprisingly well tolerated | intersubject variability for Cmax and AUC ([4]; 1 g and 2 g doses): < 20 % CV | renal clearance as percentage of the glomerular filtration rate typically found in healthy subjects ([4]; 1 g and 2 g doses): < 5% | Urinary excretion of unchanged SYM-1219, share of the administered dose ([4]; 1 g dose): 13.6% | Urinary excretion of unchanged SYM-1219, share of the administered dose ([4]; 2 g dose): 15.3% | time by which maximum concentrations were achieved ([4]; both dose groups (1 g and 2 g)): approximately 4 hrs. | dose proportionality of pharmacokinetics ([4]; comparing the 1 and 2 g doses): dose proportional | AUC(0-inf) ([4]; female, human, plasma, oral, 1 g, Exposure estimate (AUCinf)): 619 µg·h/mL | AUC(0-inf) ([4]; female, human, plasma, oral, 2 g, Exposure estimate (AUCinf)): 1330 µg·h/mL | Tmax ([4]; female, human, plasma, po, 1 g): 3.06 h | AUC(0-t) [4, 5]: 603 µg·h/mL | AUC(0-t) [4, 6]: 610 µg·h/mL | AUC(0-t) [4, 7]: 587 µg·h/mL | Cmax [4, 5]: 22400 ng/mL | Cmax [4, 6]: 22600 ng/mL | Cmax [4, 7]: 22800 ng/mL | AUC(0-inf) ([4]; female, human, plasma, po, 1 gram, AUC0-∞, Geometric Mean, 1 gram single oral dose, fasted, N = 14): 612 µg·h/mL | AUC(0-inf) ([4]; female, human, plasma, po, 1 gram, AUC0-∞, Mean, 1 gram single oral dose, fasted, N = 14): 619 µg·h/mL | AUC(0-inf) ([4]; female, human, plasma, po, 1 gram, AUC0-∞, Median, 1 gram single oral dose, fasted, N = 14): 595 µg·h/mL | CL renal ([4]; female, human, urine, po, 1 gram, Geometric Mean, 1 gram single oral dose, fasted, N = 14): 3.65 mL/min | CL renal ([4]; female, human, urine, po, 1 gram, Mean, 1 gram single oral dose, fasted, N = 14): 3.74 mL/min | Mean maximum concentration ([4]; plasma, 1 g dose): 22.6 µg/mL | t1/2, Mean [4, 8]: 17.05 h | t1/2, Median [4, 8]: 16.79 h | λz, Mean [4, 8]: 0.04099 h⁻¹ | λz, Median [4, 8]: 0.04129 h⁻¹ | Mean maximum concentration ([4]; plasma, 2 g dose): 45.4 µg/mL | AUC0-t, Geometric Mean [4, 9]: 1305.35 µg·h/mL | AUC0-t, Mean [4, 9]: 1322.40 µg·h/mL | AUC0-t, Median [4, 9]: 1290.41 µg·h/mL | AUC0-∞, Geometric Mean [4, 9]: 1314.74 µg·h/mL | AUC0-∞, Mean [4, 9]: 1331.63 µg·h/mL | AUC0-∞, Median [4, 9]: 1299.10 µg·h/mL | Cmax, Geometric Mean [4, 9]: 44840 ng/mL | Cmax, Mean [4, 9]: 45430 ng/mL | Cmax, Median [4, 9]: 45050 ng/mL | Tmax, Median [4, 9]: 4.000 h | t1/2, Mean [4, 9]: 16.86 h | t1/2, Median [4, 9]: 17.13 h | λz, Mean [4, 9]: 0.0422 h⁻¹ | λz, Median [4, 9]: 0.04047 h⁻¹ | % FE, Geometric Mean [4, 10]: 13.403% | % FE, Mean [4, 10]: 13.602% | % FE, Median [4, 10]: 13.981% | Ae0-168, Geometric Mean [4, 10]: 0.134 g | Ae0-168, Mean [4, 10]: 0.136 g | Ae0-168, Median [4, 10]: 0.140 g | CLr, Median [4, 10]: 3.965 mL/min | % FE, Geometric Mean [4, 11]: 14.991% | % FE, Mean [4, 11]: 15.300% | % FE, Median [4, 11]: 14.943% | Ae0-168, Geometric Mean [4, 11]: 0.300 g | Ae0-168, Mean [4, 11]: 0.306 g | Ae0-168, Median [4, 11]: 0.299 g | CLr, Geometric Mean [4, 11]: 3.801 mL/min | CLr, Mean [4, 11]: 3.935 mL/min | CLr, Median [4, 11]: 3.962 mL/min
